The molecules below were run against T1, human CB2R (Homo sapiens, UniProt P34972) (assay: CB2R mediated modulation of cAMP synthesis). Settings: qualitative statement; found 'through the use of the above described assays'; CHO cells expressing human CB2R, forskolin-stimulated cAMP.
T1 construct: host or cells: CHO cells
T1 sequence (P34972 whole entry): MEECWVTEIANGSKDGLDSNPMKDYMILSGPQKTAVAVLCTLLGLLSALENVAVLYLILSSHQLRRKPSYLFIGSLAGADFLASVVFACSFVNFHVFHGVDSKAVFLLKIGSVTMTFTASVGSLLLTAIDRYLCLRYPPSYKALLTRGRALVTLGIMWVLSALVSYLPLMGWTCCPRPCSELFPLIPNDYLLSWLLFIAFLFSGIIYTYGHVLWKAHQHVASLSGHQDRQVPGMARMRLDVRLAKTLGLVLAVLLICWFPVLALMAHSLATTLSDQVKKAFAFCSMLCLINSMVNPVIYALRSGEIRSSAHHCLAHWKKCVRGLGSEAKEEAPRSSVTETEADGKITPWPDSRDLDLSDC
Assay type: cell-based
Protocol: B. CB2R Mediated Modulation of cAMP Synthesis:
CHO cells expressing human CB2R (Euroscreen) were plated at a density of 5000 cells per well in 384 well plates and incubated overnight at 37° C. After removing the media, the cells were treated with test compounds diluted in stimulation buffer containing 1 mM IBMX, 0.25% BSA and 10 uM Forskolin. The assay was incubated for 30 minutes at 37° C. Cells were lysed and the cAMP concentration was measured using DiscoverX-XS cAMP kit, following the manufacturer's protocol. In this setting, agonists will decrease forskolin induced production of cAMP while inverse agonists will further increase forskolin induced production of cAMP. EC50 of agonists were calculated as follows. The maximal amount of cAMP produced by forskolin compared to the level of cAMP inhibited by 1 uM CP55940 is defined as 100%. The EC50 value of each test compound was determined as the concentration at which 50% of the forskolin-stimulated cAMP synthesis was inhibited. Data was analyzed using a four-parameter logistic model. (Model 205 of XLfit 4.0).
With `Cc1ccc(C)c(Nc2ccc(CN(C)CC(O)c3ccccc3)cc2)c1` (centres unmarked) [Example 1, 2-{[4-(2,5-Dimethyl-phenylamino)-benzyl]-methyl-amino}-1-phenyl-ethanol] the agonistic activity was “agonistic activity”.
For `CN(Cc1ccc(Nc2ccccc2)cc1)CC(O)c1ccccc1` (centres unmarked) [Example 2, 2-[methyl-(4-phenylamino-benzyl)-amino]-1-phenyl-ethanol], the agonistic activity was “agonistic activity”.
`Cc1ccc(Cl)c(Nc2ccc(CN(C)CC(O)c3ccccc3)cc2)c1` (centres unmarked) [Example 3, 2-{[4-(2-chloro-5-methyl-phenylamino)-benzyl]-methyl-amino}-1-phenyl-ethanol] was tested, and the agonistic activity was “agonistic activity”.
In the case of `CN(Cc1ccc(Nc2ccccc2Cl)cc1)CC(O)c1ccccc1` (centres unmarked) [Example 4, 2-{[4-(2-chloro-phenylamino)-benzyl]-methyl-amino}-1-phenyl-ethanol], the agonistic activity is reported as “agonistic activity”.
`CN(Cc1ccc(Nc2ccccc2Cl)cc1)C[C@H](O)c1ccccc1` [Example 5, (R)-2-{[4-(2-chloro-phenylamino)-benzyl]-methyl-amino}-1-phenyl-ethanol] was tested, and the agonistic activity was “agonistic activity”.
With `Cc1ccccc1Nc1ccc(CN(C)CC(O)c2ccccc2)cc1` (centres unmarked) [Example 6, 2-[methyl-4(o-tolylamino-benzyl)-amino]-1-phenyl-ethanol] the agonistic activity was “agonistic activity”.
In the case of `Cc1ccc(C)c(Nc2ccc(CN(C)CC(O)c3ccccc3)cn2)c1` (centres unmarked) [Example 7, 2-{[6-(2,5-dimethyl-phenylamino)-pyridin-3-ylmethyl]-methyl-amino}-1-phenyl-ethanol], the agonistic activity is reported as “agonistic activity”.
For `Cc1ccc(Cl)c(Nc2ccc(CN(C)CC(O)c3ccccc3)cn2)c1` (centres unmarked) [Example 8, 2-{[6-(2-chloro-5-methyl-phenylamino)-pyridin-3-ylmethyl]-methyl-amino}-1-phenyl-ethanol], the agonistic activity was “agonistic activity”.
With `Cc1ccc(Cl)cc1Nc1ccc(CN(C)CC(O)c2ccccc2)cn1` (centres unmarked) [Example 9, 2-{[6-(5-chloro-2-methyl-phenylamino)-pyridin-3-ylmethyl]-methyl-amino}-1-phenyl-ethanol] the agonistic activity was “agonistic activity”.
`CN(Cc1ccc(Nc2ccccc2Cl)nc1)CC(O)c1ccccc1` (centres unmarked) [Example 10, 2-{[6-(2-chloro-phenylamino)-pyridin-3-ylmethyl]-methyl-amino}-1-phenyl-ethanol] was tested, and the agonistic activity was “agonistic activity”.
`Cc1ccccc1Nc1ccc(CN(C)CC(O)c2ccccc2)cn1` (centres unmarked) [Example 11, 2-[methyl-(6-o-tolylamino-pyridin-3-ylmethyl)-amino]-1-phenyl-ethanol] was tested, and the agonistic activity was “agonistic activity”.
`CN(Cc1ccc(Nc2ccccc2)cc1)C[C@H](O)c1ccccc1` [Example 15, (R)-2-[Methyl-(4-phenylamino-benzyl)-amino]-1-phenyl-ethanol] was tested, and the agonistic activity was “agonistic activity”.
With `CN(Cc1ccc(S(=O)(=O)c2ccccc2)cc1)C[C@H](O)c1ccccc1` [Example 17, (R)-2-[(4-Benzenesulfonyl-benzyl)-methyl-amino]-1-phenyl-ethanol] the agonistic activity was “agonistic activity”.
In the case of `CN(Cc1ccc(Oc2ccccc2)cc1)C[C@H](O)c1ccccc1` [Example 19, (R)-2-[Methyl-(4-phenoxy-benzyl)-amino]-1-phenyl-ethanol], the agonistic activity is reported as “agonistic activity”.
For `CN(Cc1cnc2ccccc2c1)C[C@H](O)c1ccccc1` [Example 20, (R)-2-(Methyl-quinolin-3-ylmethyl-amino)-1-phenyl-ethanol], the agonistic activity was “agonistic activity”.
In the case of `CN(Cc1ccc(Oc2ccccc2)nc1)C[C@@H](O)c1ccccc1` [Example 21, (S)-2-[Methyl-(6-phenoxy-pyridin-3-ylmethyl)-amino]-1-phenyl-ethanol], the agonistic activity is reported as “agonistic activity”.
For `O[C@H](CNCc1cnc2ccccc2c1)c1ccccc1` [Example 22, (S)-1-Phenyl-2-[(quinolin-3-ylmethyl)-amino]-ethanol], the agonistic activity was “agonistic activity”.

Source: patent US20090275611A1, “Compounds Which Modulate The CB2 Receptor” (BOEHRINGER INGELHEIM INTERNATIONAL GMBH, priority 2006, published 2009)
